Data as given in patent US7851637B2, “Compounds and methods for inhibiting the interaction of BCL proteins with binding partners” (Infinity Pharmaceuticals, Inc., priority 2004, dated 2010).

Legend:
Bcl-2 = Bcl-2 (Homo sapiens, UniProt P10415); experiment: Bcl-2 binding affinity analysis (fluorescence polarization binding assay)
Procedure, shortened: (§1)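 Sensitive, quantitative cell-free test: compound incubated with protein, then polarization of emitted fluorescence recorded to gauge affinity.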

Bcl-xL = Bcl-xL (Homo sapiens, UniProt Q07817); experiment: Bcl-xL binding affinity analysis (fluorescence polarization binding assay); set-up: scale not given here
Procedure, shortened: as §1

Sequence of Bcl-2 (P10415 whole entry): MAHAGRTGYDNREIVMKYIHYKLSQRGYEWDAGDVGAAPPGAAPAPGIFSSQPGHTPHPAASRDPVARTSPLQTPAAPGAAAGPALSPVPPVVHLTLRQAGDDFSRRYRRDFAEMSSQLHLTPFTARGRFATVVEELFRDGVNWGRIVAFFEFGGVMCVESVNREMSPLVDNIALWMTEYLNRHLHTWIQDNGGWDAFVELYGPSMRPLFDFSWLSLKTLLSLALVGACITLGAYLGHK
Sequence of Bcl-xL (Q07817 whole entry): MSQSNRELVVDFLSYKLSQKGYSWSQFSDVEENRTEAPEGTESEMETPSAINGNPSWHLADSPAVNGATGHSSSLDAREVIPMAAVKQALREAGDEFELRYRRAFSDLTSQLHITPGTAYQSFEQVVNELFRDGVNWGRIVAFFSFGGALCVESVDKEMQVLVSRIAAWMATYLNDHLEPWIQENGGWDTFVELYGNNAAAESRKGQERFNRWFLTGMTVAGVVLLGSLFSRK

Row | Structure (SMILES) | Ki (Bcl-2) [nM] | Bcl-XL binding affinity Ki (Bcl-xL)
1 | C[C@@H]1[C@@H](NC(=O)[C@@H]2[C@H]([C@H](C)O)[C@H](CO)ON2Cc2cccc(-c3ccc(C(=O)N(C)C)cc3[N+](=O)[O-])c2)C[C@H]2C[C@@H]1C2(C)C [Compound 285] | < 800 | ♯
2 | C[C@H](O)[C@@H]1[C@H](CO)ON(Cc2cccc(N3CCN(C(=O)N(C)C)CC3)c2)[C@@H]1C(=O)NC1C[C@H]2C[C@@H]([C@@H]1C)C2(C)C (stereo partly drawn) [Compound 291] | < 800 | ♯
3 | C[C@@H]1[C@@H](NC(=O)[C@@H]2[C@H]([C@H](C)O)[C@H](CO)ON2Cc2cccc(N3CCN(S(C)(=O)=O)CC3)c2)C[C@H]2C[C@@H]1C2(C)C [Compound 293] | < 800 | ♯
4 | CC(=O)Nc1ccc(-c2cccc(CN3O[C@@H](CO)[C@@H]([C@H](C)O)[C@H]3C(=O)NC3C[C@H]4C[C@@H]([C@@H]3C)C4(C)C)c2)cc1 (stereo partly drawn) [Compound 294] | < 800 | ♯
5 | CC(C)/N=C(/NC(C)C)N1CCN(c2cccc(CN3O[C@@H](CO)[C@@H]([C@H](C)O)[C@H]3C(=O)NC3C[C@H]4C[C@@H]([C@@H]3C)C4(C)C)c2)CC1 (stereo partly drawn) [Compound 296] | < 800 | ♯
6 | C[C@@H]1[C@@H](NC(=O)[C@@H]2[C@H]([C@H](C)O)[C@H](CO)ON2Cc2cccc(-c3ccc(NS(C)(=O)=O)cc3)c2)C[C@H]2C[C@@H]1C2(C)C [Compound 298] | < 800 | ♯♯
7 | CCCNC(=O)c1ccc(-c2cccc(CN3O[C@@H](CO)[C@@H]([C@H](C)O)[C@H]3C(=O)N[C@H]3C[C@H]4C[C@@H]([C@@H]3C)C4(C)C)c2)cc1 [Compound 299] | < 800 | ♯
8 | CC(C)CC(CN(C)C)N(Cc1cccc(CN2OC(CO)C(C(C)O)C2C(=O)NC2CC3CC(C2C)C3(C)C)c1)Cc1cccc2c1OCO2 (stereo not drawn) [Compound 302] | < 800 | ♯
9 | COc1cccc(CN(Cc2cccc(CN3OC(CO)C(C(C)O)C3C(=O)NC3CC4CC(C3C)C4(C)C)c2)C(CC(C)C)CN(C)C)c1OC (stereo not drawn) [Compound 304] | < 800 | ♯
10 | CC(C)CC(CN(C)C)N(Cc1cccc(CN2OC(CO)C(C(C)O)C2C(=O)NC2CC3CC(C2C)C3(C)C)c1)CC1CCCC1 (stereo not drawn) [Compound 308] | < 800 | ♯
11 | CC(C)CC(CN(C)C)N(Cc1cccc(CN2OC(CO)C(C(C)O)C2C(=O)NC2CC3CC(C2C)C3(C)C)c1)Cc1ccccc1N1CCN(C)CC1 (stereo not drawn) [Compound 315] | < 800 | ♯
12 | CC(C)CC(CN(C)C)N(Cc1cccc(CN2OC(CO)C(C(C)O)C2C(=O)NC2CC3CC(C2C)C3(C)C)c1)Cc1ccc(F)cc1O (stereo not drawn) [Compound 329] | < 800 | ♯
13 | CSc1ccccc1CN(Cc1cccc(CN2OC(CO)C(C(C)O)C2C(=O)NC2CC3CC(C2C)C3(C)C)c1)C(CC(C)C)CN(C)C (stereo not drawn) [Compound 330] | < 800 | ♯
14 | CC(C)CC(CN(C)C)N(Cc1cccc(CN2OC(CO)C(C(C)O)C2C(=O)NC2CC3CC(C2C)C3(C)C)c1)Cc1ccccc1N1CCOCC1 (stereo not drawn) [Compound 331] | < 800 | ♯
15 | COc1ccc(O)c(CN(Cc2cccc(CN3OC(CO)C(C(C)O)C3C(=O)NC3CC4CC(C3C)C4(C)C)c2)C(CC(C)C)CN(C)C)c1 (stereo not drawn) [Compound 332] | < 800 | ♯
16 | COc1ccc(OC)c(CN(Cc2cccc(CN3OC(CO)C(C(C)O)C3C(=O)NC3CC4CC(C3C)C4(C)C)c2)C(CC(C)C)CN(C)C)c1 (stereo not drawn) [Compound 333] | < 800 | ♯
17 | CCOc1cccc(CN(Cc2cccc(CN3O[C@@H](CO)C([C@H](C)O)[C@H]3C(=O)N[C@H]3C[C@H]4C[C@@H]([C@@H]3C)C4(C)C)c2)[C@@H](CC(C)C)CN(C)C)c1O (stereo partly drawn) [Compound 334] | < 800 | ♯

Row | Structure (SMILES) | Ki (Bcl-2) [nM] | Bcl-XL binding affinity Ki (Bcl-xL)
18 | COc1ccc(Br)cc1CN(Cc1cccc(CN2OC(CO)C(C(C)O)C2C(=O)NC2CC3CC(C2C)C3(C)C)c1)C(CC(C)C)CN(C)C (stereo not drawn) [Compound 335] | < 800 | ♯
19 | COc1cccc(O)c1CN(Cc1cccc(CN2OC(CO)C(C(C)O)C2C(=O)NC2CC3CC(C2C)C3(C)C)c1)C(CC(C)C)CN(C)C (stereo not drawn) [Compound 336] | < 800 | ♯
20 | Cc1cccc(CN(Cc2cccc(CN3OC(CO)C(C(C)O)C3C(=O)NC3CC4CC(C3C)C4(C)C)c2)C(CC(C)C)CN(C)C)c1O (stereo not drawn) [Compound 337] | < 800 | ♯
21 | CC(C)CC(CN(C)C)N(Cc1cccc(CN2OC(CO)C(C(C)O)C2C(=O)NC2CC3CC(C2C)C3(C)C)c1)Cc1cccc(C(C)(C)C)c1O (stereo not drawn) [Compound 338] | < 800 | ♯
22 | CC(O)C1C(CO)ON(Cc2cccc(CN(CCN(C)C)Cc3ccccc3-c3ccc(F)cc3)c2)C1C(=O)NC1CC2CC(C1C)C2(C)C (stereo not drawn) [Compound 341] | < 800 | ♯
23 | CC(O)C1C(CO)ON(Cc2cccc(CN(CCN(C)C)Cc3ccccc3-c3cccc(F)c3)c2)C1C(=O)NC1CC2CC(C1C)C2(C)C (stereo not drawn) [Compound 342] | < 800 | ♯
24 | C[C@@H]1[C@@H](NC(=O)[C@@H]2C([C@H](C)O)[C@H](CO)ON2Cc2cccc(CN(CCN(C)C)Cc3ccccc3-c3ccccc3F)c2)C[C@H]2C[C@@H]1C2(C)C (stereo partly drawn) [Compound 343] | < 800 | ♯
25 | CC(O)C1C(CO)ON(Cc2cccc(CN(CCN(C)C)CC3CC=CCC3)c2)C1C(=O)NC1CC2CC(C1C)C2(C)C (stereo not drawn) [Compound 350] | < 800 | ♯
26 | CC(O)C1C(CO)ON(Cc2cccc(CN(CCN(C)C)Cc3ccccc3N3CCOCC3)c2)C1C(=O)NC1CC2CC(C1C)C2(C)C (stereo not drawn) [Compound 364] | < 800 | ♯
27 | Cc1ccccc1CN(CCN(C)C)Cc1cccc(CN2OC(CO)C(C(C)O)C2C(=O)NC2CC3CC(C2C)C3(C)C)c1 (stereo not drawn) [Compound 372] | < 800 | ♯
28 | COc1cccc(CN(CCN(C)C)Cc2cccc(CN3OC(CO)C(C(C)O)C3C(=O)NC3CC4CC(C3C)C4(C)C)c2)c1 (stereo not drawn) [Compound 381] | < 800 | ♯
29 | CC(O)C1C(CO)ON(Cc2cccc(CN(CCN(C)C)CC3CCCOC3)c2)C1C(=O)NC1CC2CC(C1C)C2(C)C (stereo not drawn) [Compound 382] | < 800 | ♯
30 | CC(O)C1C(CO)ON(Cc2cccc(CN(CCN(C)C)Cc3ccccc3N3CCN(C)CC3)c2)C1C(=O)NC1CC2CC(C1C)C2(C)C (stereo not drawn) [Compound 385] | < 800 | ♯
31 | C[C@@H]1[C@@H](NC(=O)[C@@H]2C([C@H](C)O)[C@H](CO)ON2Cc2cccc(CN(CCN(C)C)CC3CC4C=CC3C4)c2)C[C@H]2C[C@@H]1C2(C)C (stereo partly drawn) [Compound 401] | < 800 | ♯
32 | COCCOc1cccc(CN(CCN(C)C)Cc2cccc(CN3OC(CO)C(C(C)O)C3C(=O)NC3CC4CC(C3C)C4(C)C)c2)c1 (stereo not drawn) [Compound 406] | < 800 | ♯
33 | COCCOCCOc1cccc(CN(CCN(C)C)Cc2cccc(CN3OC(CO)C(C(C)O)C3C(=O)NC3CC4CC(C3C)C4(C)C)c2)c1 (stereo not drawn) [Compound 407] | < 800 | ♯
